Data on 2 compounds can be found in patent US10869929B2, “Phosphonate linkers and their use to facilitate cellular retention of compounds” (priority 2016, dated 2020).

Each structure is given as a SMILES string.

One data set addresses glucocorticoid receptor (Homo sapiens (Human), UniProt P04150). In words: PolarScreen Glucocorticoid Receptor Competitor Assay (GR binding). The settings on record: fluormone GS red, GR full length protein; read-out: GR Bind IC50.
Another data set concerns GILZ gene. In words: GILZ gene assay (qPCR, HUT78 / 786-O cells). Type of data set: cell-based. The settings on record: for GILZ Max: at 10 uM; for EC50: read-out: GILZ EC50. (In general: Real-time PCR tracks product formation cycle by cycle.)
For the next data set, the system named is MDCKII cells. Put plainly: Apparent permeability in MDCKII cells. The data set is classed as in vitro ADME. The settings on record: 1 μM, t=3 hr, average of A to B and B to A Papp.
The next data set has as its system ZBTB16 mRNA. Put plainly: Up-regulation of ZBTB16 mRNA in primary human B cells. Type of data set: cell-based. Particulars: for EC50: B-cell, free payload. On the procedure: The carrier solution for all ADCs and naked antibodies was 50 mM histidine pH 6.0, 100 mM NaCl and 5% trehelose. To assure consistency across experiments, ADCs were thawed on ice, dispensed to small aliquots, frozen to −80° C., and those aliquots were then used for experiments with unused material discarded at the end of the day. For all in vitro studies in this report, none of the read outs were measurably different in the presence or absence of the carrier solution. Nevertheless, the final concentration of antibody carrier solution was maintained constant at 1% v/v by serially diluting antibody solution prior to addition to the assay mixture and adding carrier solution to control wells.
For the studies of ADCs bearing reduced permeability payloads frozen human CD19+ B cells purchased from Precision Biosciences (catalog #84400, donor #13108) were thawed and re-suspended in RPMI1640 plus 10% heat-inactivated FBS (cell culture medium) at 1 million cells/mL. […] B cells were bulk treated in a 96-well block and subsequently dispensed to 96 well plates (100 μL and […] cells per well) and incubated at 37° C., 5% CO2 for 18 or 40 hr. Control wells containing equal percentages of DMSO (0.1%) and ADC buffer (1%) as sample wells were included. Cells were transferred to a 96 well v-bottom plate and spun at 500×g for 5 min. Medium was removed and cells were lysed in 150 μL RLT buffer containing beta-mercaptoethanol. RNA was isolated (RNeasy 96 kit, Qiagen, Cat #74181) and cDNA was synthesized (iScript cDNA Synthesis Kit, BioRad, Cat #170-8891) according to the supplier's protocol. Quantitative PCR was performed on Applied Biosystem's 7900 HT Real-Time PCR System to measure expression of ZBTB16 (Life Technologies, Hs00957433_m1) and GAPDH (Life Technologies, Hs02758991_g1) in duplex format.
The ΔΔCt method was used to calculate fold change of expression of ZBTB16 relative to control sample, using 3 replicates per treatment condition. For free cell impermeable compounds, B cells were seeded at 100,000 cells/well in 90 μL in a 96-well flat bottom plate. Three fold serial dilutions were performed in DMSO, subsequent intermediate 10× stocks were made in tissue-culture medium and then added to the cell plate (10 μL/well). Cells were incubated at 37° C., 5% CO2 for 18 hr, harvested and processed for PCR as described above. EC50 curves were calculated using Graph Pad Prism 6 software using nonlinear fit (agonist) vs. response-variable slope (four parameters) calculation.
Potency and maximum activity of reduced permeability glucocorticoids (free payload) and the corresponding anti-CD74-drug conjugates on up-regulation of ZBTB16 mRNA levels in primary human B cells in vitro.

Sequence of glucocorticoid receptor (P04150 whole entry): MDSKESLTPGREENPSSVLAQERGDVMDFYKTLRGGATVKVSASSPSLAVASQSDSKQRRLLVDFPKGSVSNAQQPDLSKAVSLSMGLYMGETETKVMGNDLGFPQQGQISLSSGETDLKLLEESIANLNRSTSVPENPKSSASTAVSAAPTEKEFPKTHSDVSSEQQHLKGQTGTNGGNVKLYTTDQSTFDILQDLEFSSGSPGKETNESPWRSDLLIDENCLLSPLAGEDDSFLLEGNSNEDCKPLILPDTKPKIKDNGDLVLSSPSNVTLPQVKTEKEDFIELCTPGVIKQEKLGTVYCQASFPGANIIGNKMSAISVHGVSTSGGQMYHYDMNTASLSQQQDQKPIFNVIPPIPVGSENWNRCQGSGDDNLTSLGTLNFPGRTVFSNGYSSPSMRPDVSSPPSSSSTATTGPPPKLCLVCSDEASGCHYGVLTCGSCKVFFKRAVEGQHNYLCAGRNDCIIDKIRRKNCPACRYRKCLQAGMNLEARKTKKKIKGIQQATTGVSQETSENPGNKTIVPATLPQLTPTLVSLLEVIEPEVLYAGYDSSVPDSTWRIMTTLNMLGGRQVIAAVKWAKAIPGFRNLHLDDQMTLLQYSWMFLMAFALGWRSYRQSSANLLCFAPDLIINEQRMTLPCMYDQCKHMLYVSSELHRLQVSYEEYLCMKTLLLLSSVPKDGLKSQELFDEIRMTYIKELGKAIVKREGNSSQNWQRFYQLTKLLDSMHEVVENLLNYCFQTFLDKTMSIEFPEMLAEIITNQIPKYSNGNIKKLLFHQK
Method for GILZ gene: GILZ gene assays were conducted as follows. HUT78 cells were cultured in IMEM plus 20% heat inactivated FBS and cell density was maintained between 0.1 to 1.2 million/mL. 786-O cells were cultured in RPMI plus 10% heat inactivated FBS. Actively growing cells were harvested and resuspended in HBSS with 2% FBS at 1.1 million cells per mL then dispensed to 384-well V-bottom plates at 45 μL per well. Serially diluted ADC solution was added to the cell plate (5 μL per well) and mixed for 2 min. Cells were then cultured at 37° C., at 5% CO2 for a designated time before supernatant was removed. Cells were harvested in lysis buffer from the Cells-to-Ct kit (40 μL, Life Technologies, 4391851C) following the supplier's protocol and mixed for 10 min followed by addition of 5 μL per well of stop solution from the kit. cDNA was synthesized with a reverse transcription kit (Life Technologies, 4391852C) follow by qPCR using the TaqMan gene expression master mix (Life Technologies, 4369016) with GILZ gene assay (Life Technologies, Hs00608272_m1) and GAPDH assay (Hs2758991_g1) in a duplex format with 3-4 technical replicates.
Method for MDCKII cells: Determination of apparent permeability was as follows. MDCKII cells (kindly provided by the Netherlands Cancer Institute, under a licensing agreement) were seeded on to 96-well transwell culture plates (Millipore Corp, Billerica, Mass.) and used in experiments after five days in culture. […] Substrate solution (150 μL) was added to either the apical (A) or the basolateral (B) compartment of the culture plate, and buffer (150 μL; HBSS, 10 mM HEPES, pH 7.4) with 10 μM cyclosporine A was added to the compartment opposite to that containing the substrate. At t=3 hr, 50 μL samples were removed from both sides of monolayers dosed with test compound and placed in 96 well plates, 50 μL internal standard (1 μM labetolol) and 100 μL HBSS was added to the samples. Samples were analyzed by LC/MS/MS using an Applied Biosystems SCIEX API 5000 triple quadruple mass spectrometer (Concord, ON, Canada) with a TurbolonSpray ion source in the positive ion mode. A Thermo Scientific Transcend LX-2 system (Franklin, Mass.) was coupled to the API 5000 with a flow rate of 800 μL/min to direct sample into the mass spectrometer.
Papp was expressed as 10^−6 cm/s.
Method for glucocorticoid receptor: The potency of binding to glucocorticoid receptor by small molecule compounds was measured with the PolarScreen™ Glucocorticoid Receptor Competitor Assay Kit, Red (Life Technology, Catalog #A15898) according to the procedure in the kit. In brief, after compounds were diluted and transferred into assay plates, the fluormone GS red and GR full length protein were subsequently added into the assay plates, along with the positive and negative controls. The samples were mixed on a shaker for 1 minute and then the plates were incubated at room temperature for 2-4 hours with minimal light exposure. The plates were read with an Envision and the relative fluorescent signals were calculated. The data were plotted in GraphPad Prism and the EC50 values were calculated with non-linear regression curve fit of the data in GraphPad Prism.

As to `CCC(=O)O[C@]1(C(=O)SCCCCCCCCCCP(=O)(O)O)[C@H](C)C[C@H]2[C@@H]3C[C@H](F)C4=CC(=O)C=C[C@]4(C)[C@@]3(F)[C@@H](O)C[C@@]21C` [Compound 3, (10-(((6S,8S,9R,10S,11S,13S,14S,16R,17R)-6,9-difluoro-11-hydroxy-10,13,16-trimethyl-3-oxo-17-(propionyloxy)-6,7,8,9,10,11,12,13,14,15,16,17-dodecahydro-3H-cyclopenta[a]phenanthrene-17-carbonyl)thio)decyl)phosphonic acid], the half-maximal inhibitory concentration (IC50) at glucocorticoid receptor was 0.44 nM. Besides, in the data set with GILZ gene, the “GILZ Max” value is 71% (at and the EC50 worked out at 649 nM. Moreover, the “MDCK Permeability (cm × 10−6/sec)” value with MDCKII cells was found to be 1.04 cm × 10−6/sec. Further, in the data set on ZBTB16 mRNA, the “ZBTB16 mRNA Max relative to free fluticasone” value worked out at 75% and the half-maximal effective concentration (EC50) turned out to be 1100 nM.

In the case of `C[C@@H]1C[C@H]2[C@@H]3C[C@H](F)C4=CC(=O)C=C[C@]4(C)[C@@]3(F)[C@@H](O)C[C@]2(C)[C@@]1(OC(=O)CCCCCCCCP(=O)(O)O)C(=O)SCF` [Compound 18, (9-(((6S,8S,9R,10S,11S,13S,14S,16R,17R)-6,9-difluoro-17-(((fluoromethyl)thio)carbonyl)-11-hydroxy-10,13,16-trimethyl-3-oxo-6,7,8,9,10,11,12,13,14,15,16,17-dodecahydro-3H-cyclopenta[a]phenanthren-17-yl)oxy)-9-oxononyl)phosphonic acid], at glucocorticoid receptor, the IC50 is 0.1 nM. In the data set on GILZ gene, the “GILZ Max” value is reported as 65% (at and the EC50 was 3040 nM. The “MDCK Permeability (cm × 10−6/sec)” value in the data set with MDCKII cells is <0.9 cm × 10−6/sec. Also, in the data set on ZBTB16 mRNA, the “ZBTB16 mRNA Max relative to free fluticasone” value is on record as >77% and the EC50 is 3200 nM.

The term IC50 denotes the concentration that gives 50% inhibition. For orientation: EC50 means the concentration that produces a half-maximal response.
